Data: US20160279252A1, “COMPOSITIONS FOR INDUCING IMMUNE TOLERANCE TO COAGULATION FACTOR PROTEINS” (BAYER HEALTHCARE LLC, priority 2013, published 2016)

What was measured:
[1] = target: T1, Siglec-G (Mus musculus, UniProt Q80ZE3); details: cited from earlier work
T1 sequence (Q80ZE3 18-688): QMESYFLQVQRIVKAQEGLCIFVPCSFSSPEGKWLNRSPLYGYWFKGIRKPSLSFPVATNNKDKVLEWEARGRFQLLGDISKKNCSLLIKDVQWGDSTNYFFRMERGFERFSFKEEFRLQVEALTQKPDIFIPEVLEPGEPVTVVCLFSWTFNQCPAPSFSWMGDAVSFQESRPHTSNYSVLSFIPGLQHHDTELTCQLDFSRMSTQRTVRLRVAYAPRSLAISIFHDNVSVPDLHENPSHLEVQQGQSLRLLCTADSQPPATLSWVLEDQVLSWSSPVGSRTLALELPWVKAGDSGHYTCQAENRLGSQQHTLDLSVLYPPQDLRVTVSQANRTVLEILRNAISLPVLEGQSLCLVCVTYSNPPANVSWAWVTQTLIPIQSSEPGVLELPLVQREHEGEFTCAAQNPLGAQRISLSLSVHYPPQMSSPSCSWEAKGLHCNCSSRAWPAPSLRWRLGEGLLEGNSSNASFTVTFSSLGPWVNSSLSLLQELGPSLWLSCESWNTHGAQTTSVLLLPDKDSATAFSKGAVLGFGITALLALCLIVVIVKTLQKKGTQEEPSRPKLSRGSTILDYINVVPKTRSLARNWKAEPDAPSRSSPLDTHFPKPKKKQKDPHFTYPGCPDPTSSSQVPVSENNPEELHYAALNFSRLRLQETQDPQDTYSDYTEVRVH

[2] = tested on: C57BL/6J mice; test: Tolerization of C57BL/6J mice to HEL (anti-HEL titers); assay type: in vivo, mouse; details: for effect of ligand amount on liposomes on antibody production: HEL liposomes with varying ligand, day 44 after two challenges
Method: Immunization and Blood Collection: Whole blood (50 μL) was collected from mice via a retro-orbital bleed using heparinized capillary tubes (Fisher). Blood was centrifuged (17,000 rcf, 1 min) to collect the serum. Serum was either used immediately for ELISAs or stored at −20° C. […] Liposomes and cells were delivered via the lateral tail vein in a volume of 200 μL. For studies involving a challenge with soluble (non-liposomal) antigen, mice were injected with 200 μg of HEL dissolved in HBSS and delivered intraperitoneally or 1 μg of FVIII delivered intravenously.
ELISAs: Maxisorp plates (96-well; Thermo Fisher) were coated with 50 μL/well of the relevant protein at a concentration of between 10-100 μg/mL in PBS and left overnight at 4° C. […] The following day, the plates were washed twice in TBS-T (Tris-buffered saline blocked containing 0.1% Tween 20) and blocked for 1 hr at RT with 100 μL of assay diluent (TBS-T with 1% BSA). Washing of the plates was accomplished by submerging the entire plate into a basin of wash buffer the appropriate number of times. Serum was initially diluted between 20-10,000-fold and diluted in 2-3 fold serial dilutions eight times on the ELISA plate. Plates were incubated with serum (50 μL/well) for 1 hr at 37° C. after which the plates were washed four times in TBS-T. HRP-conjugated secondary antibodies (Santa Cruz Biotechnologies) were diluted 2000-fold in assay diluent and 50 μL was added to each well. After incubation for 1 hr at 37° C., the plates were washed five times in TBS-T. To develop the plate, 75 μL/well of TMB substrate (Thermo Fisher) was added. The plate was incubated at RT for 15 minutes and then 75 μL/well of 2N H2504 was added to quench the reaction. Plates were read at 450 nm using a spectrophotometer (Molecular Devices). The titer was defined as the endpoint titer, which was the dilution of serum that produced an absorbance 2-fold above background.
Liposomes: All liposomes were composed of a 60:35:5 molar ratio of distearoyl phosphatidylcholine (DSPC; Avanti Polar Lipids), cholesterol (Sigma), and pegylated lipids. […]

[3] = target: T2, murine CD22 (Mus musculus, UniProt P35329); details: vs NeuGcα2-6Galβ1-4GlcNAc; cited from earlier work
T2 sequence (P35329 22-868): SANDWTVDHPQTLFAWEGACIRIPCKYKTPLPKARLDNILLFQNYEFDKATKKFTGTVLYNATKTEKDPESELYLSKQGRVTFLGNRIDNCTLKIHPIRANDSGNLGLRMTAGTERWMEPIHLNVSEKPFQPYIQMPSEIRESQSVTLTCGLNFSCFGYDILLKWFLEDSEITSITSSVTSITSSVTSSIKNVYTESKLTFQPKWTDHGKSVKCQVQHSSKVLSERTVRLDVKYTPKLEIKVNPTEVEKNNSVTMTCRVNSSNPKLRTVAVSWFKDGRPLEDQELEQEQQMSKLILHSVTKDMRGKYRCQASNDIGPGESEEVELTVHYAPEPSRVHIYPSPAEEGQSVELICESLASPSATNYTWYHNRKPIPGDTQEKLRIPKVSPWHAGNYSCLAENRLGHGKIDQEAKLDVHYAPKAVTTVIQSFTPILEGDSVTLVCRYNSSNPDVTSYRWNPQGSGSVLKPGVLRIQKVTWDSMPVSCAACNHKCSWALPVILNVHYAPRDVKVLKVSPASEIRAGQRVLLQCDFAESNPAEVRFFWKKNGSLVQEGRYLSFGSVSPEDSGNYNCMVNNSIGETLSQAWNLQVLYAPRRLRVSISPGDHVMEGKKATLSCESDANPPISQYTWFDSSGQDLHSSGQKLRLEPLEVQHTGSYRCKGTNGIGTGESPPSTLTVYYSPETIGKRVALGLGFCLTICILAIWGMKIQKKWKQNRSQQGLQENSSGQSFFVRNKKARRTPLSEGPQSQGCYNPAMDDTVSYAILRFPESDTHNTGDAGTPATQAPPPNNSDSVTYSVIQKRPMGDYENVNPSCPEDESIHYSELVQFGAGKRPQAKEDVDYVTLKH

[4] = target: human CD22 (Homo sapiens, UniProt P20273); details: cited from earlier work
human CD22, sequence (P20273 20-847): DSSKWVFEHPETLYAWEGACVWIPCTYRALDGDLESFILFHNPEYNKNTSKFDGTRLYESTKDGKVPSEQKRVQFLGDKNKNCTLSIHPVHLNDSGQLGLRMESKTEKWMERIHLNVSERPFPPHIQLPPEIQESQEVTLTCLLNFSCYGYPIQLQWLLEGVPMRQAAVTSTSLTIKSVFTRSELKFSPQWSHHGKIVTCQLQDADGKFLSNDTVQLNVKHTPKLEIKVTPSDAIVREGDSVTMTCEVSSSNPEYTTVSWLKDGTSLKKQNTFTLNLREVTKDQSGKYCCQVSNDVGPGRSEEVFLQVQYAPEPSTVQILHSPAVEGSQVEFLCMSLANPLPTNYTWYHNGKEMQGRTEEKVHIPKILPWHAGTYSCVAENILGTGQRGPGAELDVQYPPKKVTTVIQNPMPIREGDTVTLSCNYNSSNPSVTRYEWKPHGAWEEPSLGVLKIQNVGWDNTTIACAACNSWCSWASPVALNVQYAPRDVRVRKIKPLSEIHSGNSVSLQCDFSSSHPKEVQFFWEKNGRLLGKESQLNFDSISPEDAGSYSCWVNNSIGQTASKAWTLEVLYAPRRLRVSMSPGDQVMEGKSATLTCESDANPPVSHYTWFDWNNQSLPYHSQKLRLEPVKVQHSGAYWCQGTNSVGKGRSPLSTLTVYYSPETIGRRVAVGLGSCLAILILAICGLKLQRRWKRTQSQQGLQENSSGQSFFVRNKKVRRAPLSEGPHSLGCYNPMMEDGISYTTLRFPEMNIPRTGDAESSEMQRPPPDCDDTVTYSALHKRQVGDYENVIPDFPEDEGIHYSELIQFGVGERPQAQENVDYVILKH

[5] = tested on: FVIII deficient plasma; test: Coagulation assay (one-stage aPTT clotting FVIII:C); assay type: biochemical; details: PEGylated with PEGs 6 kD to 64 kD, assayed without purification
Method: COAGULATION ASSAY. The clotting FVIII:C test method is a one-stage assay based upon the activated partial thromboplastin time (aPTT). FVIII acts as a cofactor in the presence of Factor IXa, calcium, and phospholipid in the enzymatic conversion of Factor X to Xa. In this assay, the diluted test samples are incubated at 37° C. with a mixture of FVIII deficient plasma substrate and aPTT reagent. Calcium chloride is added to the incubated mixture and clotting is initiated. An inverse relationship exists between the time (seconds) it takes for a clot to form and logarithm of the concentration of FVIII:C. Activity levels for unknown samples are interpolated by comparing the clotting times of various dilutions of test material with a curve constructed from a series of dilutions of standard material of known activity and are reported in International Units per mL (IU/mL).
EFFECT OF PEG SIZE ON ACTIVITY. To test whether PEG sizes have an effect on both coagulation and chromogenic activities of FVIII upon PEGylation, purified full-length FVIII, PEG2, PEG6, and PEG14 were reduced by TCEP followed by reductant removal and reaction with a buffer control or PEGs ranging from 6 kD to 64 kD. The resulting PEGylated FVIII was directly assayed without removal of excess PEG or unPEGylated FVIII.

## 9-N-biphenylacetyl-NeuGcα2-6Galβ1-4GlcNAc [^BPANeuGc]
[1]
  cross-reactivity with Siglec-G: only a small degree of cross-reactivity
[2]
  effect of ligand amount on liposomes on antibody production: dose-dependent effect on antibody production
[2]; ^BPANeuGc vs NeuGc on tolerogenic HEL liposomes
  difference in EC50 between the two ligands: two orders of magnitude difference
[3]
  affinity for murine CD22 relative to natural ligand: 200 fold

## 9-N-biphenylcarboxyl-NeuAca2-6Galβ3-4GlcNAc [^BPCNeuAc]
[4]
  affinity for human CD22: high affinity

## CC(=O)NC1C(O)OC(CO)C(OC2OC(COC3(C(=O)O)CC(O)C(NC(=O)CO)C(C(O)C(O)CO)O3)C(O)C(O)C2O)C1O (stereo not shown) [NeuGc, NeuGcα2-6Galβ1-4GlcNAc]
[2]
  effect of ligand amount on liposomes on antibody production: dose-dependent effect on antibody production

## PEG6
[5]
  coagulation activity upon PEGylation: dramatic losses of coagulation activity
